Article PMC9632963, “Preclinical characterization and phase I clinical trial of CT053PTSA targets MET, AXL, and VEGFR2 in patients with advanced solid tumors” (Frontiers in Immunology, 2022)

Tested on: patients with advanced solid tumors
Assay: Phase I trial: safety, tolerability, DLT, MTD (CTCAE v4.0)
Assay type: in vivo
Excerpt: Eligible patients had at least one measurable lesion per RECIST v 1.1, Eastern Cooperative Oncology Group (ECOG) performance status of 0 or 1, and adequate hematological, renal, cardiac and hepatic functions. The primary objectives were to assess safety and tolerability as well as to determine the MTD, DLT, and dose recommended for further study. The secondary objectives were to assess the PK and preliminary efficacy of CT053PTSA.
An initial accelerated titration design was used in the 15 and 30 mg QD cohorts, and the “3+3” schema was used starting in the 60 mg QD cohort. […] The study protocol was approved by an institutional review board at Sun Yat-sen University Cancer Center. Written informed consent was obtained from all the patients before enrollment.
Descriptive statistics of safety are presented per CTCAE v4.0. Subjects who received at least one dose of CT053PTSA were considered eligible to be evaluated and included in safety analyses. […] According to the RECIST 1.1 criteria, imaging examinations were performed at each specified time point in the protocol. The antitumor activity was measured by RECIST1.1.

Cc1c(C(=O)Nc2ccc(Oc3ccnc4cc(OCC(C)(C)O)ccc34)c(F)c2)c(=O)n(-c2ccccc2)n1C [CT053PTSA]
Nausea, All (30mg (n = 1)): 0 n (%) | Nausea, ≥ G3 (30mg (n = 1)): 0 n (%) | Oropharyngeal pain, All (30mg (n = 1)): 0 n (%) | Oropharyngeal pain, ≥ G3 (30mg (n = 1)): 0 n (%) | Pain, All (30mg (n = 1)): 0 n (%) | Pain, ≥ G3 (30mg (n = 1)): 0 n (%) | Palmar-plantar erythrodysaesthesia syndrome, All (30mg (n = 1)): 0 n (%) | Palmar-plantar erythrodysaesthesia syndrome, ≥ G3 (30mg (n = 1)): 0 n (%) | Platelet count decreased, All (30mg (n = 1)): 0 n (%) | Platelet count decreased, ≥ G3 (30mg (n = 1)): 0 n (%) | Proteinuria, All (30mg (n = 1)): 0 n (%) | Proteinuria, ≥ G3 (30mg (n = 1)): 0 n (%) | Pyrexia, All (30mg (n = 1)): 0 n (%) | Pyrexia, ≥ G3 (30mg (n = 1)): 0 n (%) | Sinus bradycardia, All (30mg (n = 1)): 0 n (%) | Sinus bradycardia, ≥ G3 (30mg (n = 1)): 0 n (%) | Stomatitis, All (30mg (n = 1)): 0 n (%) | Stomatitis, ≥ G3 (30mg (n = 1)): 0 n (%) | Vomiting, All (30mg (n = 1)): 0 n (%) | Vomiting, ≥ G3 (30mg (n = 1)): 0 n (%) | leukopenia, All (30mg (n = 1)): 0 n (%) | leukopenia, ≥ G3 (30mg (n = 1)): 0 n (%) | neutropenia, All (30mg (n = 1)): 0 n (%) | neutropenia, ≥ G3 (30mg (n = 1)): 0 n (%) | transaminase elevation, All (30mg (n = 1)): 0 n (%) | transaminase elevation, ≥ G3 (30mg (n = 1)): 0 n (%) | Anaemia, All (60mg (n = 6)): 0 n (%) | Anaemia, ≥ G3 (60mg (n = 6)): 0 n (%) | Blood chloride decreased, All (60mg (n = 6)): 0 n (%) | Blood chloride decreased, ≥ G3 (60mg (n = 6)): 0 n (%) | Blood creatinine increased, All (60mg (n = 6)): 0 n (%) | Blood creatinine increased, ≥ G3 (60mg (n = 6)): 0 n (%) | Blood potassium decreased, All (60mg (n = 6)): 0 n (%) | Blood potassium decreased, ≥ G3 (60mg (n = 6)): 0 n (%) | Blood sodium decreased, All (60mg (n = 6)): 0 n (%) | Blood sodium decreased, ≥ G3 (60mg (n = 6)): 0 n (%) | Blood uric acid increased, All (60mg (n = 6)): 0 n (%) | Blood uric acid increased, ≥ G3 (60mg (n = 6)): 0 n (%) | Decreased appetite, All (60mg (n = 6)): 0 n (%) | Decreased appetite, ≥ G3 (60mg (n = 6)): 0 n (%) | Diarrhea, All (60mg (n = 6)): 0 n (%) | Diarrhea, ≥ G3 (60mg (n = 6)): 0 n (%) | Dizziness, All (60mg (n = 6)): 0 n (%) | Dizziness, ≥ G3 (60mg (n = 6)): 0 n (%) | Dry mouth, All (60mg (n = 6)): 0 n (%) | Dry mouth, ≥ G3 (60mg (n = 6)): 0 n (%) | Electrocardiogram QT prolonged, All (60mg (n = 6)): 1 (16.7) n (%) | Electrocardiogram QT prolonged, ≥ G3 (60mg (n = 6)): 0 n (%) | Electrolyte imbalance, All (60mg (n = 6)): 0 n (%) | Electrolyte imbalance, ≥ G3 (60mg (n = 6)): 0 n (%) | Hemoglobin decreased, All (60mg (n = 6)): 0 n (%) | Hemoglobin decreased, ≥ G3 (60mg (n = 6)): 0 n (%) | Hypertension, All (60mg (n = 6)): 0 n (%) | Hypertension, ≥ G3 (60mg (n = 6)): 0 n (%) | Hyponatremia, All (60mg (n = 6)): 0 n (%) | Hyponatremia, ≥ G3 (60mg (n = 6)): 0 n (%) | Hypoparathyroidism, All (60mg (n = 6)): 0 n (%) | Hypoparathyroidism, ≥ G3 (60mg (n = 6)): 0 n (%) | Mouth ulceration, All (60mg (n = 6)): 0 n (%) | Mouth ulceration, ≥ G3 (60mg (n = 6)): 0 n (%) | Nausea, All (60mg (n = 6)): 0 n (%) | Nausea, ≥ G3 (60mg (n = 6)): 0 n (%) | Oropharyngeal pain, All (60mg (n = 6)): 0 n (%) | Oropharyngeal pain, ≥ G3 (60mg (n = 6)): 0 n (%) | Pain, All (60mg (n = 6)): 0 n (%) | Pain, ≥ G3 (60mg (n = 6)): 0 n (%) | Palmar-plantar erythrodysaesthesia syndrome, All (60mg (n = 6)): 0 n (%) | Palmar-plantar erythrodysaesthesia syndrome, ≥ G3 (60mg (n = 6)): 0 n (%) | Platelet count decreased, All (60mg (n = 6)): 1 (16.7) n (%) | Platelet count decreased, ≥ G3 (60mg (n = 6)): 0 n (%) | Proteinuria, All (60mg (n = 6)): 0 n (%) | Proteinuria, ≥ G3 (60mg (n = 6)): 0 n (%) | Pyrexia, All (60mg (n = 6)): 0 n (%) | Pyrexia, ≥ G3 (60mg (n = 6)): 0 n (%) | Sinus bradycardia, All (60mg (n = 6)): 0 n (%) | Sinus bradycardia, ≥ G3 (60mg (n = 6)): 0 n (%) | Stomatitis, All (60mg (n = 6)): 0 n (%) | Stomatitis, ≥ G3 (60mg (n = 6)): 0 n (%) | Vomiting, All (60mg (n = 6)): 0 n (%) | Vomiting, ≥ G3 (60mg (n = 6)): 0 n (%) | leukopenia, All (60mg (n = 6)): 1 (16.7) n (%) | leukopenia, ≥ G3 (60mg (n = 6)): 0 n (%) | neutropenia, All (60mg (n = 6)): 1 (16.7) n (%) | neutropenia, ≥ G3 (60mg (n = 6)): 0 n (%) | transaminase elevation, All (60mg (n = 6)): 3 (50) n (%) | transaminase elevation, ≥ G3 (60mg (n = 6)): 0 n (%) | Anaemia, All (100mg (n = 7)): 1 (14.3) n (%) | Anaemia, ≥ G3 (100mg (n = 7)): 0 n (%) | Blood chloride decreased, All (100mg (n = 7)): 1 (14.3) n (%) | Blood chloride decreased, ≥ G3 (100mg (n = 7)): 0 n (%) | Blood creatinine increased, All (100mg (n = 7)): 0 n (%) | Blood creatinine increased, ≥ G3 (100mg (n = 7)): 0 n (%) | Blood potassium decreased, All (100mg (n = 7)): 0 n (%) | Blood potassium decreased, ≥ G3 (100mg (n = 7)): 0 n (%) | Blood sodium decreased, All (100mg (n = 7)): 0 n (%)
